Article PMC11790914, “Chemogenomics for steroid hormone receptors (NR3)” (Communications Chemistry, 2025)
“And” between values parts separate entries of the source, which are not always exact repeats. Identical values can stand only once.

Assays:
[1] = system: HEK293T cells; test: Cytotoxicity: necrosis induction (red fluorescent dye for permeable plasma membranes); assay type: cell-based; conditions: 1 µM, 24 h, necrotic cell count normalized to 0.1% DMSO, single replicates;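 also: compounds applied in DMEM high glucose with 0.1% FCS and 0.1% DMSO, necrotic HEK293T cells counted by red staining of cells whose plasma membranes had become permeable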
[2] = target: T1, ABL1 (Homo sapiens, UniProt P00519); test: Liability panel screening by DSF: ABL1; assay type: binding; conditions: DSF, 20 µM, n=2; read-out: Mean ΔTM ABL1
T1 construct: made in house
T1 sequence (P00519 whole entry, species assumed): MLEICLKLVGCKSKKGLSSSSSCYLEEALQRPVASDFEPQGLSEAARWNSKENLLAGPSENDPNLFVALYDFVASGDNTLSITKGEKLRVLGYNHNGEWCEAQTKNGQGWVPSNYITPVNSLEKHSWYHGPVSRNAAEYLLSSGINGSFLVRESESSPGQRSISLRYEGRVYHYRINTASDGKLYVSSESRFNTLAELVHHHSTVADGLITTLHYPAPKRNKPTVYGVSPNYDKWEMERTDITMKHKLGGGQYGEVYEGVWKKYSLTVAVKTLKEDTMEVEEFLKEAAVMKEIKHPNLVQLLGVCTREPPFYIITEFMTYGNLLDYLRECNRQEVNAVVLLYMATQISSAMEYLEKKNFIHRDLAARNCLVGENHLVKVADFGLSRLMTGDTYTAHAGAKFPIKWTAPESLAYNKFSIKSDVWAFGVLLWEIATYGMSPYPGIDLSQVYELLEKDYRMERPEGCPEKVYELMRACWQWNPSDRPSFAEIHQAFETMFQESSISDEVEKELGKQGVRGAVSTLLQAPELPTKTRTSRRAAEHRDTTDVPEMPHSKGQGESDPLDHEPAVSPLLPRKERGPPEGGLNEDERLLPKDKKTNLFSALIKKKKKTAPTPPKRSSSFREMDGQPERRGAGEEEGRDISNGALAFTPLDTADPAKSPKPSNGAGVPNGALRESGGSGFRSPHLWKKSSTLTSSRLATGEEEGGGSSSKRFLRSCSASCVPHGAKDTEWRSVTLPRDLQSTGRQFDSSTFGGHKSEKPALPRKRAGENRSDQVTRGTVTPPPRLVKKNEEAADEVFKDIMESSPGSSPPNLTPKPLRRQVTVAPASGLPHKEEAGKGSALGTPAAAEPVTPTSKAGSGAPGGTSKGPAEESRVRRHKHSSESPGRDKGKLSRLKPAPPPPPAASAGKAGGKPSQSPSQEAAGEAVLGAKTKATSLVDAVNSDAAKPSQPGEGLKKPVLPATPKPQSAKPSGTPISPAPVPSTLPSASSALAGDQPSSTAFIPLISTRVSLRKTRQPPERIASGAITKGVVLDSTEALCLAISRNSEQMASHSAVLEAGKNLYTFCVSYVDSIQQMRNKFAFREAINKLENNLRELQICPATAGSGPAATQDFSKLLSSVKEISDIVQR
Description: (§1) Reference ligands are listed in the methods section.
(§2) In-house produced recombinantly expressed proteins[62] of the liability panel targets were diluted in a buffer containing 10 mM HEPES (pH 7.5) and 500 mM NaCl to a concentration of 2 µM. SYPRO Orange (Invitrogen, Carlsbad, California, USA; #S6650) as a fluorescence probe was added at a 1:1000 dilution to the proteins. […] Temperature-dependent unfolding profiles were measured on a QuantStudio™ 5 real-time PCR machine (Thermo Fisher Scientific, Waltham, Massachusetts, USA; #A28140). […] The temperature was increased 3 °C per minute to a maximum temperature of 85 °C. Experiments were run as technical duplicates. […] Data were analyzed with the internal Thermal Shift Software (version 1.4, Thermo Fisher Scientific) using the Boltzmann equitation to determine the inflection point of the transition curve. Differences in melting temperature are given as ∆Tm in K. […]
(§3) scanning fluorimetry (DSF).
(§4) a concentration of 20 µM.

[3] = target: T2, AURKA (Homo sapiens, UniProt O14965); test: Liability panel screening by DSF: AURKA; assay type: binding; conditions: DSF, 20 µM, n=2; read-out: Mean ΔTM AURKA
T2 construct: made in house
T2 sequence (O14965 1-403): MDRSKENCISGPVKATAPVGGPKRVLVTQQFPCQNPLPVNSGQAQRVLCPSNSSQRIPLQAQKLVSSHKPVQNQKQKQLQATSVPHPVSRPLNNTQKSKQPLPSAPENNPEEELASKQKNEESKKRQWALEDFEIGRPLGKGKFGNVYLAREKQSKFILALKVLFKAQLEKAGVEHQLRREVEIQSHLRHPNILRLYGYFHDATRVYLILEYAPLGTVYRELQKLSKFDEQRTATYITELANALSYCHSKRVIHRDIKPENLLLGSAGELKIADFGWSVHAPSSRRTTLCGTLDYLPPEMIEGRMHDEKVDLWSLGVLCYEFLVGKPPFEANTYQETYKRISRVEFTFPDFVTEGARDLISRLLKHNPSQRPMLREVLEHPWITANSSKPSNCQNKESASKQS
Description: as §1, §2, §3, §4

[4] = target: T3, CDK2 (Homo sapiens, UniProt P24941); test: Liability panel screening by DSF: CDK2; assay type: binding; conditions: DSF, 20 µM, n=2; read-out: Mean ΔTM CDK2
T3 construct: made in house
Description: as §1, §2, §3, §4

[5] = target: T4, FGFR3 (Homo sapiens, UniProt P22607); test: Liability panel screening by DSF: FGFR3; assay type: binding; conditions: DSF, 20 µM, n=2; read-out: Mean ΔTM FGFR3
T4 construct: made in house
T4 sequence (P22607 23-806, species assumed): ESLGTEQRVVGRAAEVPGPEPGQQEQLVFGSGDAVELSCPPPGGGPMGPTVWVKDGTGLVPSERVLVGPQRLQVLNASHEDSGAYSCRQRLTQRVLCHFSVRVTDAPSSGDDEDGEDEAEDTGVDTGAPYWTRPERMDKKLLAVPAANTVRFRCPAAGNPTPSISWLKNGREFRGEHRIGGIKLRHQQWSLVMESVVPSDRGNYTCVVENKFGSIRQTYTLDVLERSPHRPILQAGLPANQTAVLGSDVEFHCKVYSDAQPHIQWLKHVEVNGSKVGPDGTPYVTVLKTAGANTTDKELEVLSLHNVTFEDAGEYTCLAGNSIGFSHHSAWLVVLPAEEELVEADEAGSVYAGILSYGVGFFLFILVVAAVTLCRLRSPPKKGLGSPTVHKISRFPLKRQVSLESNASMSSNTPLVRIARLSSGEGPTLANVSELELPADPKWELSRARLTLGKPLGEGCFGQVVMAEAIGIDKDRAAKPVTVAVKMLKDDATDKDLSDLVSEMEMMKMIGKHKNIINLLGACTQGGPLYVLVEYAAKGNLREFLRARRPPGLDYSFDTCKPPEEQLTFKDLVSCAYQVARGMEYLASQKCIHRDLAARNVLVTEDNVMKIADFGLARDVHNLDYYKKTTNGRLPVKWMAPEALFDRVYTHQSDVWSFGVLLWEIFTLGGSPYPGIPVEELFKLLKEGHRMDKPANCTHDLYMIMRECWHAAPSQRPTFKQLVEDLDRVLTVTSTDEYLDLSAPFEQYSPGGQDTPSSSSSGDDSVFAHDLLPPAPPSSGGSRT
Description: as §1, §2, §3, §4

[6] = target: T5, GSK3B (Homo sapiens, UniProt P49841); test: Liability panel screening by DSF: GSK3B; assay type: binding; conditions: DSF, 20 µM, n=2; read-out: Mean ΔTM GSK3B
T5 construct: made in house
T5 sequence (P49841 whole entry, species assumed): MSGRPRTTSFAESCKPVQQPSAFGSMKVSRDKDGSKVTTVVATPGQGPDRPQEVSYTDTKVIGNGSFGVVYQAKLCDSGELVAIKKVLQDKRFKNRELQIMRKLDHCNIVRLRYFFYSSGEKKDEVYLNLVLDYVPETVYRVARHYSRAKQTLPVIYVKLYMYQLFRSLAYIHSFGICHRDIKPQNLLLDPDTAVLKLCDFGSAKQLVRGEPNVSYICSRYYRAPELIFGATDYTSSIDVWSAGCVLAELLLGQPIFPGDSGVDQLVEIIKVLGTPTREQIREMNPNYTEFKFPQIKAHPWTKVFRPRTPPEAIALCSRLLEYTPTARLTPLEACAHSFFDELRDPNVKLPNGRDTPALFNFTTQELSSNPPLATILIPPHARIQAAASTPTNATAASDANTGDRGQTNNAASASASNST

[7] = target: T6, BRD4 (Homo sapiens, UniProt O60885); test: Liability panel screening by DSF: BRD4; assay type: binding; conditions: DSF, 20 µM, n=2; read-out: Mean ΔTM BRD4
T6 construct: This panel comprised ten highly ligandable kinases and bromodomains; made in house
Description: as §1, §2, §3, §4

[8] = target: T7, BRPF1 (Homo sapiens, UniProt P55201); test: Liability panel screening by DSF: BRPF1; assay type: binding; conditions: DSF, 20 µM, n=2; read-out: Mean ΔTM BRPF1
T7 construct: This panel comprised ten highly ligandable kinases and bromodomains; made in house
T7 sequence (P55201 628-732 limits assumed): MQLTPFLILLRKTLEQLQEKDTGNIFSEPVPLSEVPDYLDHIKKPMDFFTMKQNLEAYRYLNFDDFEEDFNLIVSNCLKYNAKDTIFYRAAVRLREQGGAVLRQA
Description: as §1, §2, §3, §4

[9] = target: T8, CSNK1D (Homo sapiens, UniProt P48730); test: Liability panel screening by DSF: CSNK1D; assay type: binding; conditions: DSF, 20 µM, n=2; read-out: Mean ΔTM CSNK1D
T8 construct: made in house
T8 sequence (P48730 whole entry, species assumed): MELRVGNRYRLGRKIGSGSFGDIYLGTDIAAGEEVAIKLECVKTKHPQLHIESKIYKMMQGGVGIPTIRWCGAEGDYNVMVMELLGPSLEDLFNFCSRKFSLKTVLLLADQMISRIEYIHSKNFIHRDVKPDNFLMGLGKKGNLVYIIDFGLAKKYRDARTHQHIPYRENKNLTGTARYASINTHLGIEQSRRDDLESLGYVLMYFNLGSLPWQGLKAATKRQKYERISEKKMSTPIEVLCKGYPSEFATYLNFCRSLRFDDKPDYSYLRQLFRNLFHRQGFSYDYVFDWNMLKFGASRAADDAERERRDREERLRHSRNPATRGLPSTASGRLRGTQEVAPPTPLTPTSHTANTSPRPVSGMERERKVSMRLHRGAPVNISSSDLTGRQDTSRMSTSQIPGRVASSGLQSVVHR
Description: as §1, §2, §3, §4

[10] = target: T9, MAPK1 (Homo sapiens, UniProt P28482); test: Liability panel screening by DSF: MAPK1; assay type: binding; conditions: DSF, 20 µM, n=2; read-out: Mean ΔTM MAPK1
T9 construct: made in house
T9 sequence (P28482 whole entry, species assumed): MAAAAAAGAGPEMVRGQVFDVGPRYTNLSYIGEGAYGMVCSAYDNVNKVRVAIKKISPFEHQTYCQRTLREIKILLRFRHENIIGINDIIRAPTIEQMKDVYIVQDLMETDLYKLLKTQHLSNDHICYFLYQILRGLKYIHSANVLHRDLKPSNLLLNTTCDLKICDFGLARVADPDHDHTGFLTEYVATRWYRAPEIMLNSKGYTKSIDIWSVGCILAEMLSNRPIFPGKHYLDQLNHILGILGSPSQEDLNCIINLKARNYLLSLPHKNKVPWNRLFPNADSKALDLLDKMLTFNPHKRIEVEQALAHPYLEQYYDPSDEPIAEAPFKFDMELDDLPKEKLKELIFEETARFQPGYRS
Description: as §1, §2, §3, §4

[11] = target: T10, TRIM24 (Homo sapiens, UniProt O15164); test: Liability panel screening by DSF: TRIM24; assay type: binding; conditions: DSF, 20 µM, n=2; read-out: Mean ΔTM TRIM24
T10 construct: This panel comprised ten highly ligandable kinases and bromodomains; made in house
T10 sequence (O15164 899-1004 limits assumed): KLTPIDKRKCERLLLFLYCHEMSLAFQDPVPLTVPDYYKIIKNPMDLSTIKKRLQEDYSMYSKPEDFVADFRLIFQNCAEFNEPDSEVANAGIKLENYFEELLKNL
Description: as §1, §2, §3, §4

[12] = system: NF-κB activity in HEK293 NF-κB reporter cells; test: NF-kB activity assay (GFP reporter, ionomycin/PMA); assay type: cell-based; conditions: for Mean NFκB response: n=3
Description: Fig. 6 Application of the NR3 CG set.
After 24 h, cells were incubated with the test compounds solubilized with 0.1% DMSO in the same medium without puromycin. After 4 h incubation, ionomycin (100 ng/mL) and phorbol-12-myristat-13-acetate (PMA, 10 ng/mL) was added, and the cells were imaged for confluence and GFP expression every 90 min. over 24 h using a Tecan SPARK Cyto (Tecan). The number of GFP expressing cells was normalized to confluence in each sample. Each sample was repeated in three biologically independent experiments.

[13] = system: HEK293T cells; test: Cytotoxicity: metabolic activity (WST-8 / CCK-8 assay); conditions: 1 µM; HEK293T, 24 h; WST-8; normalized to 0.1% DMSO; single replicates
[14] = system: HEK293T cells; test: Cytotoxicity: apoptosis induction (caspase-3/7 DEVD fluorogenic DNA dye); conditions: 1 µM; HEK293T, 24 h; apoptotic cell count normalized to 0.1% DMSO; single replicates
[15] = system: ATF6 activity in Hela ATF6 reporter cells; test: Endoplasmic reticulum stress assay (ATF6 Renilla luciferase reporter, tunicamycin); assay type: cell-based; conditions: Hela ATF6 reporter cells; tunicamycin 100 ng/mL, 18 h; compounds at recommended concentrations; n = 5
Description: After 24 h, cells were incubated with the test compounds solubilized with 0.1% DMSO in the same medium without puromycin. After 4 h incubation, tunicamycin (100 ng/mL) was added. After another 18 h incubation, cells were assayed for renilla luminescence using DualGlo reagent (Promega) on a Tecan SPARK Cyto (Tecan). Test samples were normalized to the 0.1% DMSO control. Each sample was repeated in five biologically independent experiments.

[16] = system: HEK293T cells; test: Cytotoxicity: growth-rate (change in confluence over 24 h); conditions: 1 µM, normalized to 0.1% DMSO control, single replicates (n=1...)

In the case of `Cc1c(N2C(=O)C3C(O)CCN3C2=O)ccc(C#N)c1Cl` (stereo not shown) [BMS564929], the “Necrosis induction [NI]” value [1] is reported as 0.79 and 0.76 and 0.66 and 0.82, the ΔTm at 20 µM [2] is reported as 0.02 °C and the ΔTm at 20 µM [3] is reported as -2.25 °C. For the same compound, the ΔTm at 20 µM [4] was 0.04 °C, the ΔTm at 20 µM [5] was -0.04 °C and the ΔTm at 20 µM [6] was -0.71 °C. For the same compound, the ΔTm at 20 µM [7] was -2.89 °C, the ΔTm at 20 µM [8] was 0.06 °C and the ΔTm at 20 µM [9] was -0.38 °C. For the same compound, the ΔTm at 20 µM [10] was 0.12 °C, the ΔTm at 20 µM [11] was 0.44 °C and the “Mean NFκB response” value ([12]; 1 µM, 1,5 h) was 2292.65 GFP+-cells/confluence ∙ 1000. The “Mean NFκB response” value ([12]; 1 µM, 4,5 h) was 2993.37 GFP+-cells/confluence ∙ 1000, the “Mean NFκB response” value ([12]; 1 µM, 7,5 h) was 6319.46 GFP+-cells/confluence ∙ 1000 and the “Mean NFκB response” value ([12]; 1 µM, 10,5 h) was 12250.00 GFP+-cells/confluence ∙ 1000. For the same compound, the “Mean NFκB response” value ([12]; 1 µM, 13,5 h) was 16870.00 GFP+-cells/confluence ∙ 1000, the “Mean NFκB response” value ([12]; 1 µM, 16,6 h) was 20913.33 GFP+-cells/confluence ∙ 1000 and the “Mean NFκB response” value ([12]; 1 µM, 19,5 h) was 23700.00 GFP+-cells/confluence ∙ 1000. For the same compound, the “Mean NFκB response” value ([12]; 1 µM, 22,5 h) was 25766.67 GFP+-cells/confluence ∙ 1000, the “Mean NFκB response” value ([12]; 1 µM, 3 h) was 2425.99 GFP+-cells/confluence ∙ 1000 and the “Mean NFκB response” value ([12]; 1 µM, 6 h) was 4160.27 GFP+-cells/confluence ∙ 1000. For the same compound, the “Mean NFκB response” value ([12]; 1 µM, 9 h) was 9390.00 GFP+-cells/confluence ∙ 1000, the “Mean NFκB response” value ([12]; 1 µM, 12 h) was 14670.00 GFP+-cells/confluence ∙ 1000 and the “Mean NFκB response” value ([12]; 1 µM, 15 h) was 19226.67 GFP+-cells/confluence ∙ 1000. For the same compound, the “Mean NFκB response” value ([12]; 1 µM, 18 h) was 22263.33 GFP+-cells/confluence ∙ 1000, the “Mean NFκB response” value ([12]; 1 µM, 21 h) was 24826.67 GFP+-cells/confluence ∙ 1000 and the “Mean NFκB response” value ([12]; 1 µM, 24 h) was 26713.33 GFP+-cells/confluence ∙ 1000. The “Metabolic activity [MA]” value [13] was 1.09 and 1.08 and 0.94 and 1.07 (2×) and 0.99 and 0.92 and 1.10 and the “Apoptosis induction [AI]” value [14] was 0.43 and 0.64 and 0.69 and 0.74 and 0.68 and 1.04.

For `N#CC(Cc1ccc(O)cc1)c1ccc(O)cc1` (stereo not shown) [Diarylpropionitrile], the “Necrosis induction [NI]” value [1] was 1.10 and 0.85 and 0.90 and 1.44, the ΔTm at 20 µM [2] was 0.17 °C and the ΔTm at 20 µM [3] was 0.16 °C. The ΔTm at 20 µM [4] was 0.74 °C, the ΔTm at 20 µM [5] was 0.51 °C and the ΔTm at 20 µM [6] was 0.0529 °C. The ΔTm at 20 µM [7] was 0.26 °C, the ΔTm at 20 µM [8] was -1.46 °C and the ΔTm at 20 µM [9] was 0.0747 °C. The ΔTm at 20 µM [10] was 0.0328 °C, the ΔTm at 20 µM [11] was 0.03 °C and the “Mean NFκB response” value ([12]; 1 µM, 1,5 h) was 3165.75 GFP+-cells/confluence ∙ 1000. The “Mean NFκB response” value ([12]; 1 µM, 4,5 h) was 4108.72 GFP+-cells/confluence ∙ 1000, the “Mean NFκB response” value ([12]; 1 µM, 7,5 h) was 9286.59 GFP+-cells/confluence ∙ 1000 and the “Mean NFκB response” value ([12]; 1 µM, 10,5 h) was 18231.50 GFP+-cells/confluence ∙ 1000. For the same compound, the “Mean NFκB response” value ([12]; 1 µM, 13,5 h) was 25916.56 GFP+-cells/confluence ∙ 1000, the “Mean NFκB response” value ([12]; 1 µM, 16,6 h) was 31500.03 GFP+-cells/confluence ∙ 1000 and the “Mean NFκB response” value ([12]; 1 µM, 19,5 h) was 35046.16 GFP+-cells/confluence ∙ 1000. The “Mean NFκB response” value ([12]; 1 µM, 22,5 h) was 38151.13 GFP+-cells/confluence ∙ 1000, the “Mean NFκB response” value ([12]; 1 µM, 3 h) was 3363.39 GFP+-cells/confluence ∙ 1000 and the “Mean NFκB response” value ([12]; 1 µM, 6 h) was 5664.74 GFP+-cells/confluence ∙ 1000. For the same compound, the “Mean NFκB response” value ([12]; 1 µM, 9 h) was 14005.24 GFP+-cells/confluence ∙ 1000, the “Mean NFκB response” value ([12]; 1 µM, 12 h) was 22519.63 GFP+-cells/confluence ∙ 1000 and the “Mean NFκB response” value ([12]; 1 µM, 15 h) was 29221.60 GFP+-cells/confluence ∙ 1000. For the same compound, the “Mean NFκB response” value ([12]; 1 µM, 18 h) was 33392.36 GFP+-cells/confluence ∙ 1000, the “Mean NFκB response” value ([12]; 1 µM, 21 h) was 36386.11 GFP+-cells/confluence ∙ 1000 and the “Mean NFκB response” value ([12]; 1 µM, 24 h) was 39415.66 GFP+-cells/confluence ∙ 1000. The “NF-κB activity (inflammatory response to ionomycin/PMA)” value ([12]; HEK293 NF-κB reporter cells, compounds at recommended concentrations, imaged over 24 h, n = 3) was “no impact on NF-κB activity”, the “ATF6 activity (tunicamycin-induced endoplasmic reticulum stress)” value [15] was “failed to reduce ATF6 activity” and the “Metabolic activity [MA]” value [13] was 1.05 and 0.99 and 0.90 and 1.01 and 1.03 and 0.93 and 1.00 and 1.10. For the same compound, the “Growth rate [GR]” value [16] was 0.79 (2×) and 0.00 (2×) and 0.84 and 1.00 and 0.91 and 0.88 and 1.61 and 5.04 and the “Apoptosis induction [AI]” value [14] was 0.70 and 1.46 and 0.65 and 1.11 and 1.49 and 0.58.
